Results: ChEMBL document CHEMBL5375999, “Discovery of a Dual Tubulin and Neuropilin-1 (NRP1) Inhibitor with Potent In Vivo Anti-Tumor Activity via Pharmacophore-based Docking Screening, Structure Optimization, and Biological Evaluation” (J Med Chem, 2023)
Activity calls are given as the source filed them. The calls are words filed in the database; no cut-off is given here.

Columns and labels:
[1] = target: Vascular endothelial growth factor A, long form (Homo sapiens, UniProt P15692); experiment: Inhibition of VEGF (unknown origin)
[2] = target: Neuropilin-2 (Homo sapiens, UniProt O60462); experiment: Inhibition of NRP2 (unknown origin)
[3] = target: AP2-associated protein kinase 1 (Homo sapiens, UniProt Q2M2I8); experiment: Inhibition of AAK1 (unknown origin)
[4] = target: RAC-beta serine/threonine-protein kinase (Homo sapiens, UniProt P31751); experiment: Inhibition of AKT2 (unknown origin)
[5] = target: RAC-gamma serine/threonine-protein kinase (Homo sapiens, UniProt Q9Y243); experiment: Inhibition of AKT3 (unknown origin)
[6] = target: ALK tyrosine kinase receptor (Homo sapiens, UniProt Q9UM73); experiment: Inhibition of ALK (unknown origin)
[7] = target: Ankyrin repeat and protein kinase domain-containing protein 1 (Homo sapiens, UniProt Q8NFD2); experiment: Inhibition of ANKK1 (unknown origin)
[8] = target: Cytoplasmic tyrosine-protein kinase BMX (Homo sapiens, UniProt P51813); experiment: Inhibition of BMX (unknown origin)
[9] = target: Cyclin-dependent kinase 8 (Homo sapiens, UniProt P49336); experiment: Inhibition of CDK8 (unknown origin)
[10] = target: Mitogen-activated protein kinase kinase kinase 20 (Homo sapiens, UniProt Q9NYL2); experiment: Inhibition of ZAK (unknown origin)
[11] = target: Epidermal growth factor receptor (Homo sapiens, UniProt P00533); experiment: Inhibition of EGFR (unknown origin)
[12] = target: Tyrosine-protein kinase HCK (Homo sapiens, UniProt P08631); experiment: Inhibition of HCK (unknown origin)
[13] = target: Tyrosine-protein kinase Lck (Homo sapiens, UniProt P06239); experiment: Inhibition of LCK (unknown origin)
[14] = target: Serine/threonine-protein kinase MAK (Homo sapiens, UniProt P20794); experiment: Inhibition of MAK (unknown origin)
[15] = target: Hepatocyte growth factor receptor (Homo sapiens, UniProt P08581); experiment: Inhibition of MET (unknown origin)
[16] = target: Serine/threonine-protein kinase 4 (Homo sapiens, UniProt Q13043); experiment: Inhibition of MST1 (unknown origin)
[17] = target: Serine/threonine-protein kinase 38 (Homo sapiens, UniProt Q15208); experiment: Inhibition of NDR1 (unknown origin)
[18] = target: Serine/threonine-protein kinase pim-1 (Homo sapiens, UniProt P11309); experiment: Inhibition of PIM1 (unknown origin)
[19] = target: Tubulin (Homo sapiens) (UniProt P68371+Q9H4B7+P0DPH7+P68366+Q13509+Q71U36+P04350+Q3ZCM7+P07437+P68363+Q9BQE3+Q6PEY2+Q13885+Q9BVA1+Q9BUF5); experiment: Inhibition of tubulin polymerization in human PC-3 cells assessed as nucleus disappearance at 2.5 to 12.5 uM incubated for 48 hrs by immunofluorescence assay; assay type: cell-based; details: dose 2.5-12.5 µM
[20] = test system: PC-3; experiment: Cytotoxicity against human PC-3 cells assessed as inhibition of cell viability incubated for 48 hrs by MTT assay; assay type: functional, cell-based; details: PC-3, 48 h
[21] = test system: DU-145; experiment: Cytotoxicity against human DU-145 cells assessed as inhibition of cell viability incubated for 48 hrs by MTT assay; assay type: functional, cell-based
[22] = test system: PC-3; experiment: Induction of cell cycle arrest in human PC-3 cells assessed as accumulation of cells at G2/M phase at 0.1 uM by flow cytometry analysis (reference value: 3.24%); assay type: functional
[23] = test system: PC-3; experiment: Induction of cell cycle arrest in human PC-3 cells assessed as S phase cells at 2.5 uM by flow cytometry analysis (reference value: 2%); assay type: functional
[24] = test system: PC-3; experiment: Induction of cell cycle arrest in human PC-3 cells assessed as G0/G1 phase cells at 12.5 uM by flow cytometry analysis (reference value: 94.76%); assay type: functional
[25] = test system: PC-3; experiment: Induction of cell cycle arrest in human PC-3 cells assessed as increase in p-cdc2 expression at 0.5 to 12.5 uM incubated for 48 hrs by Western blotting analysis; assay type: functional, cell-based; details: dose 0.5-12.5 µM
[26] = test system: PC-3; experiment: Induction of apoptosis in human PC-3 cells assessed as early apoptotic cells at 0.1 uM by Annexin-V FITC staining based flow cytometry analysis (reference value: 1.51%); assay type: functional
[27] = test system: PC-3; experiment: Induction of apoptosis in human PC-3 cells assessed as late apoptotic cells at 0.1 uM by Annexin-V FITC staining based flow cytometry analysis (reference value: 1.67%); assay type: functional
[28] = test system: PC-3; experiment: Induction of apoptosis in human PC-3 cells assessed as viable cells at 0.5 uM by Annexin-V FITC staining based flow cytometry analysis (reference value: 96.8%); assay type: functional; details: read-out: Activity
[29] = test system: PC-3; experiment: Induction of apoptosis in human PC-3 cells assessed as late apoptotic cells at 0.5 uM by Annexin-V FITC staining based flow cytometry analysis (reference value: 1.67%); assay type: functional
[30] = test system: PC-3; experiment: Induction of apoptosis in human PC-3 cells assessed as early apoptotic cells at 2.5 uM by Annexin-V FITC staining based flow cytometry analysis (reference value: 1.51%); assay type: functional
[31] = test system: PC-3; experiment: Induction of apoptosis in human PC-3 cells assessed as viable cells at 12.5 uM by Annexin-V FITC staining based flow cytometry analysis (reference value: 96.8%); assay type: functional; details: read-out: Activity
[32] = test system: PC-3; experiment: Induction of apoptosis in human PC-3 cells assessed as late apoptotic cells at 12.5 uM by Annexin-V FITC staining based flow cytometry analysis (reference value: 1.67%); assay type: functional
[33] = test system: PC-3; experiment: Antiangiogenesis activity in human PC-3 cells assessed as inhibition of tube formation incubated for 8 to 15 hrs by matrigel based inverted microscopic analysis; assay type: functional, cell-based; details: dose 0.1-12.5 µM, time 8-15 hrs
[34] = test system: PC-3; experiment: Antiangiogenesis activity in human PC-3 cells assessed as appearance of scattered cells at 0.1 to 12.5 uM incubated for 8 to 15 hrs by matrigel based inverted microscopic analysis; assay type: functional, cell-based; details: dose 0.1-12.5 µM, time 8-15 hrs
[35] = target: Vascular endothelial growth factor receptor 2 (Homo sapiens, UniProt P35968); experiment: Inhibition of VEGF-induced VEGFR2 signal pathway in HUVECs assessed as reduction in p-VEGFR2 level; assay type: cell-based; details: HUVEC, dose 0.1-12.5 µM
[36] = Toxicity in BALB/c mouse xenografted with human PC-3 cells assessed as change body weight at 5 to 10 mg/kg, ip administered every 4 days for 20 days; assay type: organism-based; details: in vivo, 480 h, dose 5-10 mg/kg, time 20 day
[37] = Toxicity in BALB/c mouse xenografted with human PC-3 cells assessed as change in heart morphology at 5 to 10 mg/kg, ip administered every 4 days for 20 days by H and E staining based inverted microscopic assay; assay type: organism-based; details: in vivo, 480 h, dose 5-10 mg/kg, time 20 day
[38] = Toxicity in BALB/c mouse xenografted with human PC-3 cells assessed as change in lung morphology at 5 to 10 mg/kg, ip administered every 4 days for 20 days by H and E staining based inverted microscopic assay; assay type: organism-based; details: in vivo, 480 h, dose 5-10 mg/kg, time 20 day
[39] = Tmax in Sprague-Dawley rat at 1.5 mg/kg, po measured upto 24 hrs by LC-MS/MS analysis; assay type: ADME, organism-based; details: in vivo
[40] = AUC in Sprague-Dawley rat at 1.5 mg/kg, po measured upto 24 hrs by LC-MS/MS analysis; assay type: ADME, organism-based; design: dose 1.5 mg/kg, time < 24 hrs, route po; details: in vivo

Sequence of ALK tyrosine kinase receptor (Q9UM73 whole entry, the tested form may be a part): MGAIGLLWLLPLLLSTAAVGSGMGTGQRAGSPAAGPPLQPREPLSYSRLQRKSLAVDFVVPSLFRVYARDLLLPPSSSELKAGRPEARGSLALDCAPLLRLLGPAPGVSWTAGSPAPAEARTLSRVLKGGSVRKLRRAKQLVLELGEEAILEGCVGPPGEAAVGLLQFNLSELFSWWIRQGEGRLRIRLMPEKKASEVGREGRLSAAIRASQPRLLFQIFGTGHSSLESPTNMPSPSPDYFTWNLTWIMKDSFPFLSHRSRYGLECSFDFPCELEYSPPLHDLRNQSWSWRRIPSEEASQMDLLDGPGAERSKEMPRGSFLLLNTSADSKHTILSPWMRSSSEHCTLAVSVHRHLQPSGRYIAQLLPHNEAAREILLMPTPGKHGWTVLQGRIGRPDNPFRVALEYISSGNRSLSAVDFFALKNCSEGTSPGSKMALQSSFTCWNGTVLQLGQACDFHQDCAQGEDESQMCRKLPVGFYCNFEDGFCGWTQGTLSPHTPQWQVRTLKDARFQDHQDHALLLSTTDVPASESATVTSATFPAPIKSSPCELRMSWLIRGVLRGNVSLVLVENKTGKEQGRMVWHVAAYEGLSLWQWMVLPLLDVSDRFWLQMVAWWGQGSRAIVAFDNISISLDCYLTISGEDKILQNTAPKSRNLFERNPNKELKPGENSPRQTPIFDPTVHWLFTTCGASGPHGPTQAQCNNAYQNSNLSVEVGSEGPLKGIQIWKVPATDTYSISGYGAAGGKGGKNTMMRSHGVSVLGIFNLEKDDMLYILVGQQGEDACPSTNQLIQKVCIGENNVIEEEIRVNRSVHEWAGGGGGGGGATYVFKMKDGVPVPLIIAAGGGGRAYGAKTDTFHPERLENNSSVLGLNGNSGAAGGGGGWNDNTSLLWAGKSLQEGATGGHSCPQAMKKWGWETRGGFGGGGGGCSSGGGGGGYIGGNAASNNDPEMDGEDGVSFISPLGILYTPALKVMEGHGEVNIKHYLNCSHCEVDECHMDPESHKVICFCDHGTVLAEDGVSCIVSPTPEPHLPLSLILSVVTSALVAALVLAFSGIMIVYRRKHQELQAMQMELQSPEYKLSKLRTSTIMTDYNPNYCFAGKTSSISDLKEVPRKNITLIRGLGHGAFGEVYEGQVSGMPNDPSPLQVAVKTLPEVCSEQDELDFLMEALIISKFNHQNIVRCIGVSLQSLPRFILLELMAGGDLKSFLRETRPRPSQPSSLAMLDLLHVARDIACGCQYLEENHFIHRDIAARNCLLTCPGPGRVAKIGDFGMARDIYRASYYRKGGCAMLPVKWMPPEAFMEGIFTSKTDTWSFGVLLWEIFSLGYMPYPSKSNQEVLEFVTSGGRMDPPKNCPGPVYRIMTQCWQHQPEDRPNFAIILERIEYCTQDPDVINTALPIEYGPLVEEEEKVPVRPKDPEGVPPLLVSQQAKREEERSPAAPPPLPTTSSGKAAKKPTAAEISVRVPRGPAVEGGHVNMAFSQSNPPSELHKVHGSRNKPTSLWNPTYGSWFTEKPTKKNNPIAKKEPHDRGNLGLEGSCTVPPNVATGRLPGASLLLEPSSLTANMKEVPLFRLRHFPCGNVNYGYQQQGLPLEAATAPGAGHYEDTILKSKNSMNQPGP
Sequence of RAC-beta serine/threonine-protein kinase (P31751 whole entry): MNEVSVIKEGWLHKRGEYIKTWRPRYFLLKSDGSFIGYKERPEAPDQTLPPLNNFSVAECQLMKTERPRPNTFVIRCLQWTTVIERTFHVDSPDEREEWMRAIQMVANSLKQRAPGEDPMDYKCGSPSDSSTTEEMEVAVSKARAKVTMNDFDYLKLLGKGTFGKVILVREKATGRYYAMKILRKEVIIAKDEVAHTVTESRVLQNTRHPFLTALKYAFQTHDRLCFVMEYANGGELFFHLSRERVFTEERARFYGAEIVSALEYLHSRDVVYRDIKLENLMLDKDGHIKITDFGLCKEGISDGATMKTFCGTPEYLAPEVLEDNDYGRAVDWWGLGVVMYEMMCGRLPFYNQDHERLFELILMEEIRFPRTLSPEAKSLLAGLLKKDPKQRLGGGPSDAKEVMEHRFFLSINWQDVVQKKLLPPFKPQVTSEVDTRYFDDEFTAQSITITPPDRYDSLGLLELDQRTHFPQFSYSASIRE
Sequence of RAC-gamma serine/threonine-protein kinase (Q9Y243 whole entry): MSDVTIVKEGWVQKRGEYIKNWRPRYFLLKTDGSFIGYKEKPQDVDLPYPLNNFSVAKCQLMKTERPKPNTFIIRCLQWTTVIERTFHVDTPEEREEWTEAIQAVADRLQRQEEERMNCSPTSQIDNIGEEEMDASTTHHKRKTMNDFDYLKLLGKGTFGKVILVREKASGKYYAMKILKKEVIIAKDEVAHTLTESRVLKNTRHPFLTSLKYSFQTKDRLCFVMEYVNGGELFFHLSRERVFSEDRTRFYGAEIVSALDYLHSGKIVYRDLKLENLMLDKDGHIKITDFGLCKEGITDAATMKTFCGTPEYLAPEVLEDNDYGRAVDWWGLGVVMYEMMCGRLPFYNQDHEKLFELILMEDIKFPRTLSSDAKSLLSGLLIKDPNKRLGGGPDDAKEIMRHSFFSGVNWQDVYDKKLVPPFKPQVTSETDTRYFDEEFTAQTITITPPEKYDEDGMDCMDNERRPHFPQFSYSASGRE
Sequence of Serine/threonine-protein kinase pim-1 (P11309 whole entry): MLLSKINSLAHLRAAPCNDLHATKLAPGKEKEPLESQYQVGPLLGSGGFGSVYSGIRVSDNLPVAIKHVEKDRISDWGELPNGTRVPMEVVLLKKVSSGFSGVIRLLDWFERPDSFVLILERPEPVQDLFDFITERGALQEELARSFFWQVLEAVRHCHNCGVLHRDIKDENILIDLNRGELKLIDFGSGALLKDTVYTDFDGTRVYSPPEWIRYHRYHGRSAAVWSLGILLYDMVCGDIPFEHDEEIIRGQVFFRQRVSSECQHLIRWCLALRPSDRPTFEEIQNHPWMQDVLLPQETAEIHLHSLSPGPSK
Sequence of Serine/threonine-protein kinase MAK (P20794 whole entry): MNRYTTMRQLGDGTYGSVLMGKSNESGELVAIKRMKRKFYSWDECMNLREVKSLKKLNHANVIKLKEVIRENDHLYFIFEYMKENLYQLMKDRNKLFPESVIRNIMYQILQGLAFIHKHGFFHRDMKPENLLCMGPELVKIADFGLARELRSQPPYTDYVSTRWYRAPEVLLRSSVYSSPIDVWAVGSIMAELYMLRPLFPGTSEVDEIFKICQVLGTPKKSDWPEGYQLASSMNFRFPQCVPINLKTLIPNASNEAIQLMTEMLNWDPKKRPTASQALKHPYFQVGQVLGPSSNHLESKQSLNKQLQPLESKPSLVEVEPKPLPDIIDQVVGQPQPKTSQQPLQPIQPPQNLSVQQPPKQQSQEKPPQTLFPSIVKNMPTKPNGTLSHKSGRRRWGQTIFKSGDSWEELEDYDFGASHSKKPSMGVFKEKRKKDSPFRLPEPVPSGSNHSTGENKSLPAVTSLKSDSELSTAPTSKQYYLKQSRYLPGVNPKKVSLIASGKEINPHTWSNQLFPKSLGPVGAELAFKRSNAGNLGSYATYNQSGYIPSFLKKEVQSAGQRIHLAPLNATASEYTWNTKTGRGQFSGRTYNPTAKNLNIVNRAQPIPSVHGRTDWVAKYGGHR
Sequence of Ankyrin repeat and protein kinase domain-containing protein 1 (Q8NFD2 whole entry, the tested form may be a part): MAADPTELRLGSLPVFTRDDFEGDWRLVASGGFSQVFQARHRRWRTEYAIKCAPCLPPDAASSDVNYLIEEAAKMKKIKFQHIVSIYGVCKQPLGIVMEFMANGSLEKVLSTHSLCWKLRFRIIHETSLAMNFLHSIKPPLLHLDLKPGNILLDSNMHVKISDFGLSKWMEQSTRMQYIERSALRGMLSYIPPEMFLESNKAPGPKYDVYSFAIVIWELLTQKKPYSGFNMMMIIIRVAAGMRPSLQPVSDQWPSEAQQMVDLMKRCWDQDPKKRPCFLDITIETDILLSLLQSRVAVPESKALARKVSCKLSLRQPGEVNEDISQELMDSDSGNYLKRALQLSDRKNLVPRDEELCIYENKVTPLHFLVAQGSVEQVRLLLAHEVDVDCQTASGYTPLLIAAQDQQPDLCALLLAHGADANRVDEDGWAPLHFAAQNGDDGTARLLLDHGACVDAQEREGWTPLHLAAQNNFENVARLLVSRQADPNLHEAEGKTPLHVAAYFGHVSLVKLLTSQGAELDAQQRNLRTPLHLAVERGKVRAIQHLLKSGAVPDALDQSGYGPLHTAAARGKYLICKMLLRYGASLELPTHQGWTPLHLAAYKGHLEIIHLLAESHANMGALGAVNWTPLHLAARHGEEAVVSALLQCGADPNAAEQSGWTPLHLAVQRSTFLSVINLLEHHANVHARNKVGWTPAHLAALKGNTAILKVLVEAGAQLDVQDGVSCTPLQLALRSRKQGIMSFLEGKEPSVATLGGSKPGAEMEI
Sequence of Serine/threonine-protein kinase 38 (Q15208 whole entry): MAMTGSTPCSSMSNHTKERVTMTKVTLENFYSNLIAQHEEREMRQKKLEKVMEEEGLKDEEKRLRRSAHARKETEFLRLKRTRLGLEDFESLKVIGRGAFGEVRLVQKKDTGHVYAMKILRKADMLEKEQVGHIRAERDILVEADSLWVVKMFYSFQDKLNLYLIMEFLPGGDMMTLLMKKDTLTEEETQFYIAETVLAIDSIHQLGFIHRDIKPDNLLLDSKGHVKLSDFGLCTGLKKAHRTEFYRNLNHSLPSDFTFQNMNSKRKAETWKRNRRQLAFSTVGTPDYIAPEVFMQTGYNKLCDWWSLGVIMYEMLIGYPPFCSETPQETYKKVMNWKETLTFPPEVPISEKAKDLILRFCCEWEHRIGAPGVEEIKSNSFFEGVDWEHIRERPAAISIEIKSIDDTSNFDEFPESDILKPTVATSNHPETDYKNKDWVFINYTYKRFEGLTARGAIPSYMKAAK

IC50 [1]: > 10 µM | IC50 [2]: > 10 µM | IC50 [3]: > 10 µM | IC50 [4]: > 10 µM | IC50 [5]: > 10 µM | IC50 [6]: > 10 µM | IC50 [7]: > 10 µM | IC50 [8]: > 10 µM | IC50 [9]: > 10 µM | IC50 [10]: > 10 µM | IC50 [11]: > 10 µM | IC50 [12]: > 10 µM | IC50 [13]: > 10 µM | IC50 [14]: > 10 µM | IC50 [15]: > 10 µM | IC50 [16]: > 10 µM | IC50 [17]: > 10 µM | IC50 [18]: > 10 µM | inhibition [19]: Active | inhibition [35]: Dose-Dependent Effect | Tmax [39]: 30 min | AUC at 24 h [40]: 4300 ng·h/mL
SMILES: COc1ccc(/C=C\c2cc(OC)c(OC)c(OC)c2)cc1NC(=O)CCC(=O)N[C@@H](CCCNC(=N)N)C(=O)O
IC50 [20]: 0.02 µM | Activity [21]: Active | Activity [22]: 4.48% | Activity [23]: 3.67% | Activity [24]: 51.13% | Activity [25]: Active | Activity [26]: 1.84% | Activity [27]: 4.49% | viability at 0.5 µM [28]: 91.6% | Activity [29]: 5.32% | Activity [30]: 3.63% | viability at 12.5 µM [31]: 89.4% | Activity [32]: 6.04% | Activity [33]: Dose-Dependent Effect | Activity [34]: Active | Activity [36]: Non-Toxic | Activity [37]: Non-Toxic | Activity [38]: Non-Toxic
